The numbers were not newly measured in PMC13303826, “Nicotinonitrile based dual inhibitors of tubulin and topoisomerase II exhibit potent anticancer activity” (Scientific Reports, 2026), which cites them from elsewhere.

The test system of one data set is HT-29. Further details: method as in PMID 25840421, PMID 39533473. The following applies: Fig. 1B; cited from earlier work.
The test system of another data set is NCI. Further details: method as in PMID 8392342. To be noted: Fig. 1B; cited from earlier work.
For the next data set, the system named is A549. Further details: method as in PMID 33465263. The following applies: Fig. 1A; cited from earlier work.
A further data set relates to MCF-7. The arrangement: method as in ref 8 (podophyllotoxin), ref 13-15 (VIII). The following applies: Fig. 1; ref 8 (podophyllotoxin), ref 13-15 (VIII); cited from earlier work.
Another data set deals with HL-60. Further details: method as in ref 4, 12 (YCH337), ref 13-15 (VIII). To be noted: Fig. 1; 12 (YCH337), ref 13-15 (VIII); cited from earlier work.
For the next data set, the system named is colon-26. Further details: method as in PMID 24669888, PMID 30111667, PMID 9873694. The following applies: Fig. 1C; cited from earlier work.
The test system of a further data set is HeLa. The following applies: Fig. 1; ref 10 (etoposide), 12 (YCH337); cited from earlier work.
A further data set has as its system HepG2. The arrangement: method as in PMID 31278032. The following applies: Fig. 1A; cited from earlier work.

As a reminder, the IC50 is the midpoint of a concentration-inhibition curve. Turning to `COC(=O)C1C(c2cc(OC)c(OC)c(OC)c2)c2cc3c(cc2C(n2cc(-c4ccc(F)cc4)nn2)C1C=O)OCO3` (stereo not drawn) [VI], the IC50 with HT-29 is 40 nM.
Regarding `COc1cc([C@@H]2c3[nH]c4ccccc4c3C[C@H]3COC(=O)N32)cc(OC)c1O` [Azatoxin (NSC 640737), azatoxin], the IC50 in the data set on NCI was 130 nM.
`COc1cc([C@@H]2c3cc4c(cc3[C@H](O)[C@H]3COC(=O)[C@H]23)OCO4)cc(OC)c1OC` [Podophyllotoxin]: the figures for the half-maximal inhibitory concentration (IC50) in the data set on A549 and in the data set on MCF-7 were 1900 nM and 2210 nM, respectively.
`COc1ccc(-c2cc(-c3cc(OC)c(OC)c(OC)c3)c(C#N)c(=O)[nH]2)cc1` [VIII]: the IC50 was 180 nM in the data set on MCF-7 and 470 nM in the data set on HL-60.
As for `COc1ccc(-c2nnnn2-c2cc(OC)c(OC)c(OC)c2)cc1N` [IX], in the data set on colon-26, the IC50 is 7.2 nM.
For `COc1cc([C@@H]2c3cc4c(cc3[C@@H](O[C@@H]3O[C@@H]5CO[C@@H](C)O[C@H]5[C@H](O)[C@H]3O)[C@H]3COC(=O)[C@H]23)OCO4)cc(OC)c1O` [Etoposide], the IC50 in the data set on HeLa was 12200 nM; with HepG2, 10500 nM.
